For the experiment, the system named is P388 leukemia ip, CD2F1 mice, survival T/C. Nature of the experiment: NCI In Vivo Anticancer Drug Screen. Data for tumor model P388 Leukemia (intraperitoneal) in CD2F1 (CDF1) mice. The conditions noted are these: endpoint: median survival time, higher = longer survival. In short, it runs like this:
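Mice carrying the transplanted tumor received test compound or vehicle. Survival was recorded in each group, and the value is the treated-group measurement divided by that of the vehicle-treated control group.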

Setting [1] is: dose: 12.5 mg/kg/injection, schedule: Q01DX009 (ip), vehicle: saline with Tween-80.
Setting [2] is: dose: 200.0 mg/kg/injection, schedule: Q01DX001 (ip), vehicle: saline with Tween-80.
Where [3] appears, read: dose: 400.0 mg/kg/injection, schedule: Q01DX001 (ip), vehicle: saline with Tween-80.

Several values for one entry are separate records, joined by “and”; a condition that tells them apart may be missing. Equal entries are not always repeated. Toxic doses and inconclusive results are not listed.

Regarding `NS(=O)(=O)OCCCCCCCOS(N)(=O)=O`, the T/C is, setting by setting: (dose: 6.0 mg/kg/injection, schedule: Q01DX005 (iv), vehicle: other) 109 % of control; (dose: 6.7 mg/kg/injection, schedule: Q04DX003 (ip), vehicle: other) 121 % of control; (dose: 8.98 mg/kg/injection, schedule: Q01DX005 (ip), vehicle: other) 122 % of control; (dose: 8.98 mg/kg/injection, schedule: Q01DX005 (iv), vehicle: other) 112 % of control; (dose: 10.0 mg/kg/injection, schedule: Q04DX003 (ip), vehicle: other) 119 % of control; (dose: 11.0 mg/kg/injection, schedule: Q03HX009 (ip), vehicle: other) 160 % of control. The T/C is, setting by setting: (dose: 13.4 mg/kg/injection, schedule: Q01DX005 (iv), vehicle: other) 118 % of control; (dose: 16.5 mg/kg/injection, schedule: Q03HX009 (ip), vehicle: other) 171 % of control; (dose: 16.67 mg/kg/injection, schedule: Q01DX009 (ip), vehicle: other) 168 % of control; (dose: 20.0 mg/kg/injection, schedule: Q01DX001 (iv), vehicle: other) 105 % of control; (dose: 20.0 mg/kg/injection, schedule: Q01DX005 (ip), vehicle: other) 150 % of control and 159 % of control; (dose: 22.5 mg/kg/injection, schedule: Q03HX003 (ip), vehicle: other) 158 % of control. The T/C (dose: 24.9 mg/kg/injection, schedule: Q01DX009 (ip), vehicle: other) was 184 % of control; the T/C (dose: 25.0 mg/kg/injection, schedule: Q01DX005 (ip), vehicle: saline with Tween-80) is 152 % of control and 163 % of control; the T/C (dose: 25.0 mg/kg/injection, schedule: Q03HX009 (ip), vehicle: other) was 206 % of control; the T/C (dose: 30.0 mg/kg/injection, schedule: Q01DX001 (ip), vehicle: other) was 124 % of control; the T/C (dose: 30.0 mg/kg/injection, schedule: Q01DX001 (iv), vehicle: other) is 111 % of control; the T/C (dose: 30.0 mg/kg/injection, schedule: Q01DX005 (ip), vehicle: other) is 161 % of control and 181 % of control. The T/C (dose: 33.3 mg/kg/injection, schedule: Q04DX003 (ip), vehicle: other) was 164 % of control; the T/C (dose: 34.0 mg/kg/injection, schedule: Q03HX003 (ip), vehicle: other) was 174 % of control; the T/C (dose: 37.0 mg/kg/injection, schedule: Q03HX009 (ip), vehicle: other) was 232 % of control; the T/C (dose: 37.2 mg/kg/injection, schedule: Q01DX009 (ip), vehicle: other) was 222 % of control; the T/C (dose: 37.2 mg/kg/injection, schedule: Q01DX009 (oral), vehicle: other) is 124 % of control; the T/C (dose: 44.0 mg/kg/injection, schedule: Q01DX005 (ip), vehicle: other) is 192 % of control. In addition, the T/C is, setting by setting: (dose: 44.89 mg/kg/injection, schedule: Q01DX005 (ip), vehicle: other) 194 % of control; (dose: 44.9 mg/kg/injection, schedule: Q01DX001 (iv), vehicle: other) 112 % of control; (dose: 50.0 mg/kg/injection, schedule: Q03HX003 (ip), vehicle: other) 210 % of control; (dose: 50.0 mg/kg/injection, schedule: Q04DX003 (ip), vehicle: other) 185 % of control; (dose: 55.6 mg/kg/injection, schedule: Q01DX009 (ip), vehicle: other) 123 % of control; (dose: 67.0 mg/kg/injection, schedule: Q01DX001 (ip), vehicle: other) 151 % of control. In addition, the T/C is 212 % of control (dose: 74.8 mg/kg/injection, schedule: Q04DX003 (ip), vehicle: other); 109 % of control (dose: 82.9 mg/kg/injection, schedule: Q01DX009 (oral), vehicle: other); 164 % of control (dose: 100.0 mg/kg/injection, schedule: Q01DX001 (ip), vehicle: other); 210 % of control (dose: 111.6 mg/kg/injection, schedule: Q04DX003 (ip), vehicle: other); 156 % of control (dose: 125.0 mg/kg/injection, schedule: Q01DX005 (ip), vehicle: saline with Tween-80); 205 % of control (dose: 150.0 mg/kg/injection, schedule: Q01DX001 (ip), vehicle: other). Under “dose: 200.0 mg/kg/injection, schedule: Q01DX005 (ip), vehicle: saline with Tween-80”, the T/C was 117 % of control.
As to `CC1(C(=O)O)CCCC2(C)C(CC(=O)O)C(=O)CCC12` (stereo not given), the T/C runs as follows: (dose: 5.0 mg/kg/injection, schedule: Q01DX009 (ip), vehicle: saline with Tween-80) 101 % of control; (dose: 10.0 mg/kg/injection, schedule: Q01DX009 (ip), vehicle: saline with Tween-80) 108 % of control; (dose: 20.0 mg/kg/injection, schedule: Q01DX009 (ip), vehicle: saline with Tween-80) 99 % of control.
In the case of `Cc1ccc2[nH]c(=S)n(CCc3ccccc3)c(=O)c2c1`, the T/C runs as follows: (dose: 50.0 mg/kg/injection, schedule: Q01DX009 (ip), vehicle: Klucel (hydroxypropylcellulose) (HPC)) 99 % of control; (dose: 100.0 mg/kg/injection, schedule: Q01DX009 (ip), vehicle: Klucel (hydroxypropylcellulose) (HPC)) 97 % of control; (dose: 200.0 mg/kg/injection, schedule: Q01DX009 (ip), vehicle: Klucel (hydroxypropylcellulose) (HPC)) 97 % of control.
Turning to `O=c1c2ncccc2cc2n1CCc1c-2[nH]c2ccccc12`, the T/C was 88 % of control (dose: 6.25 mg/kg/injection, schedule: Q01DX009 (ip), vehicle: saline with Tween-80) and 86 % of control under setting [1].
With `C[S+](C)CC[N+](C)(C)C`, the T/C reads like this: (dose: 12.5 mg/kg/injection, schedule: Q01DX009 (ip), vehicle: water) 104 % of control; (dose: 25.0 mg/kg/injection, schedule: Q01DX009 (ip), vehicle: water) 108 % of control; (dose: 50.0 mg/kg/injection, schedule: Q01DX009 (ip), vehicle: water) 110 % of control.
On to `Oc1ccc2[nH]cc(CCNCC3(O)OCC(O)C(O)C3O)c2c1` (stereo not given), for which the T/C was 98 % of control (dose: 60.0 mg/kg/injection, schedule: Q01DX005 (ip), vehicle: saline); 101 % of control (dose: 120.0 mg/kg/injection, schedule: Q01DX005 (ip), vehicle: saline); 91 % of control (dose: 240.0 mg/kg/injection, schedule: Q01DX005 (ip), vehicle: saline).
`Cn1cccc1/C=N/N1CC(=O)N(c2ccccc2)CC1=O`: the T/C runs as follows: (dose: 50.0 mg/kg/injection, schedule: Q01DX005 (ip), vehicle: saline with Tween-80) 108 % of control; (dose: 100.0 mg/kg/injection, schedule: Q01DX005 (ip), vehicle: saline with Tween-80) 100 % of control.
With `COC1=C(OC)C(=O)C2=C(OCCCO2)C1=O`, the T/C by setting is: (dose: 60.0 mg/kg/injection, schedule: Q01DX001 (ip), vehicle: saline with Tween-80) 105 % of control; under setting [2], 105 % of control; under setting [3], 101 % of control.
As to `O=Cc1cccc(CC(O)(C(F)(F)F)C(F)(F)F)n1`, the T/C runs as follows: under setting [1], 95 % of control; (dose: 12.5 mg/kg/injection, schedule: Q04DX003 (ip), vehicle: saline with Tween-80) 100 % of control; (dose: 25.0 mg/kg/injection, schedule: Q01DX009 (ip), vehicle: saline with Tween-80) 100 % of control; (dose: 25.0 mg/kg/injection, schedule: Q04DX003 (ip), vehicle: saline with Tween-80) 100 % of control; (dose: 50.0 mg/kg/injection, schedule: Q01DX009 (ip), vehicle: saline with Tween-80) 100 % of control; (dose: 50.0 mg/kg/injection, schedule: Q04DX003 (ip), vehicle: saline with Tween-80) 95 % of control.
As for `COc1cc(C2C3=C(CC(C)(C)CC3=O)Oc3cc4c(cc32)OCO4)cc(OC)c1OC` (stereo not given), the T/C was 97 % of control (dose: 60.0 mg/kg/injection, schedule: Q01DX005 (ip), vehicle: saline with Tween-80) and 98 % of control (dose: 120.0 mg/kg/injection, schedule: Q01DX005 (ip), vehicle: saline with Tween-80).
As for `CCN(CC)CCN1C(=O)c2cccc3cc(OC)cc(c23)C1=O`, the T/C (dose: 25.0 mg/kg/injection, schedule: Q01DX005 (ip), vehicle: saline) was 104 % of control; the T/C (dose: 50.0 mg/kg/injection, schedule: Q01DX005 (ip), vehicle: saline) is 100 % of control; the T/C (dose: 100.0 mg/kg/injection, schedule: Q01DX005 (ip), vehicle: saline) is 107 % of control.
Regarding `O=C(N/N=C/c1cc(Cl)cc(Cl)c1[O-])c1ccccc1.O=C(N/N=C/c1cc(Cl)cc(Cl)c1[O-])c1ccccc1.[Ni+2]`, the T/C (dose: 100.0 mg/kg/injection, schedule: Q01DX001 (ip), vehicle: saline with Tween-80) is 93 % of control; the T/C under setting [2] was 92 % of control; the T/C under setting [3] is 107 % of control.

For the origin of these results see PubChem BioAssay AID330 (DTP/NCI, 2004).
